From patent US4900730A, “Preparation which promotes the absorption of peptides” (priority 1981, dated 1990)
No end group written: not given here.

Experiments:
[1] = Rectal circulation with fatty acids as promoters (Example 15, Example 1 repeated)
Description: Absorption effects under conditions with various tonicities were examined.
The experiment was conducted in the following manner.
(The units in the Table are percents.)

[2] = Penicillin suppositories, concentration in plasma (Example 34); type: in vivo, S.D. male rats; details: Four fold tonicity suppository with 3.6% NaCl and 5% sodium adipate, intrarectal
Description: The dispersion was filled in a silicone tube (inner diameter 2.5 mm) to produce a rod-like suppository of 50 mg as a control suppository.
These suppositories were intrarectally administered to S.D. male rats (weighing about 250 g) and the concentration of Carbenicillin in blood was measured.
The concentration of Carbenicillin in blood was determined on sampled plasma by the use of Sarcina luteus ATCC 9341 in accordance with the conventional method.
The same experiment was effected on Dicloxacillin.Na.

[3] = rat, in vivo
Description: (§1) The experiment was conducted in the following manner. Sprague Dawley rats (male), weighing 200 to 300 g, were narcotized (after fast for 20 hours) with pentobarbital (50 mg/kg) and thereafter subjected to hypoabdominal incision for a first cannulation at a position about 1.5 cm from anus and also another cannulation at a position 5 cm above the first cannulation. Subsequently, the rectum was internally washed with about 50 ml of isotonic sodium chloride solution kept at 38° C., and samples each of 10 ml were circulated through rectum for 5 minutes (2 ml/minute) to make the concentration in the system constant. Then, 5 ml of each sample was circulated at a flow rate of 2 ml/minute, and samples each of 0.05 ml were collected at intervals of 10 minutes from 0 minute. Each sample was diluted to 5 ml with distilled water and the quantity of medicine disappeared by absorption was determined by UV spectrophotometer.
Quantities of 0.5 W/W % Cefmetazole.Na disappeared by absorption under isotonic and three-fold tonic conditions were determined, respectively, using sodium malate, sodium pyruvate, sodium phosphenolpyruvate, sodium β-hydroxybutyrate, sodium β-hydroxy glutarate, and sodium 2-phospho-D-glycerate.

[4] = Cephalothin concentration in blood after injection through anus (Example 6); type: in vivo, rat; details: with 6% sodium chloride and 1.0% disodium EDTA mono-ethylate vs 2% Cephalothin.Na control
Description: Using 2% solution of Cephalothin.Na (in 0.1M Tris-HCl buffer, pH 8.0) as Control, an injection agent was prepared by adding 6% sodium chloride and 1.0% disodium EDTA mono-ethylate to said solution.

[5] = Rectal circulation: Cephalothin disappeared by absorption (Examples 10-14, 16-18); details: rat, in vivo
Description: The experiments were conducted similarly as in Example 1. […] Each sample was diluted and the quantity of Cephalothin disappeared was determined by UV-spectrophotometer of high-speed liquid chromatography.

[6] = rabbit, in vivo, 250 mg/kg
[7] = rat, in vivo; remark: listed apart in the source
Description: as §1

[8] = Calcium concentration after intrarectal calcitonin preparation, relative effect (Example 8); type: in vivo, SD rats; details: after one hour, CVP and CT set at standard value of 1
[9] = Table 9, fatty acid 0.1 W/V %, Example 1 repeated, X 1
[10] = Table 9, fatty acid 0.1 W/V %, Example 1 repeated, X 4

In the case of `CCCC(=O)O` [Butyric acid, butyric acid], the “medicine disappeared by absorption, Osmotic pressure X 1” value ([1]; rat, in vivo) is reported as 9.9 percents, the “medicine disappeared by absorption, Osmotic pressure X 2” value ([1]; rat, in vivo) is reported as 17.1 percents and the “medicine disappeared by absorption, Osmotic pressure X 4” value ([1]; rat, in vivo) is reported as 21.0 percents.

In the case of `CC1(C)S[C@@H]2[C@H](NC(=O)C(C(=O)O)c3ccccc3)C(=O)N2[C@H]1C(=O)O` (stereo partly shown) [Carbenicillin.Na], the “Concentration in plasma 5 min.” value [2] is reported as 5000 ng/mL, the “Concentration in plasma 10 min.” value [2] is reported as 14700 ng/mL and the “Concentration in plasma 20 min.” value [2] is reported as 11500 ng/mL. The “Concentration in plasma 30 min.” value [2] was 8900 ng/mL, the “Concentration in plasma 60 min.” value [2] was 5100 ng/mL and the “Concentration in plasma 90 min.” value [2] was 3100 ng/mL. The “Concentration in plasma 120 min.” value [2] was 1600 ng/mL.

In the case of `CO[C@@]1(NC(=O)CSCC#N)C(=O)N2C(C(=O)O)=C(CSc3nnnn3C)CS[C@@H]21` [Cefmetazole.Na], the “quantity of Cefmetazole.Na disappeared by absorption” value [3] is reported as “practically negligible”.

With `CC(=O)OCC1=C(C(=O)O)N2C(=O)[C@@H](NC(=O)Cc3cccs3)[C@H]2SC1` [Cephalothin.Na, reference compound] the concentrations in blood [4] was “significantly increased”, the “Cephalothin disappeared by absorption, Osmotic pressure (%) X 1” value [5] was 1.2% and the “Cephalothin disappeared by absorption, Osmotic pressure (%) X 2” value [5] was 1.6%. The “Cephalothin disappeared by absorption, Osmotic pressure (%) X 4” value [5] was 3.1%, the “Cephalothin disappeared by absorption, Osmotic pressure X 1” value [5] was 1.2 percents and the “Cephalothin disappeared by absorption, Osmotic pressure X 2” value [5] was 1.6 percents. The “Cephalothin disappeared by absorption, Osmotic pressure X 4” value [5] was 3.1 percents.

For `Cc1onc(-c2c(Cl)cccc2Cl)c1C(=O)N[C@@H]1C(=O)N2[C@@H]1SC(C)(C)[C@@H]2C(=O)O` [Dicloxacillin.Na], the “Concentration in plasma 5 min.” value [2] was 4500 ng/mL, the “Concentration in plasma 10 min.” value [2] was 15400 ng/mL and the “Concentration in plasma 20 min.” value [2] was 10500 ng/mL. For the same compound, the “Concentration in plasma 30 min.” value [2] was 7500 ng/mL, the “Concentration in plasma 60 min.” value [2] was 4600 ng/mL and the “Concentration in plasma 90 min.” value [2] was 2900 ng/mL. The “Concentration in plasma 120 min.” value [2] was 900 ng/mL.

With `CCCCCCCCCC(=O)[O-].[Na+]` [Sodium caprate, sodium caprate] the “medicine disappeared by absorption, Osmotic pressure X 1” value [1, 9] was 5.2 percents and the “medicine disappeared by absorption, Osmotic pressure X 4” value [1, 10] was 8.6 percents.

For `CCCCCC(=O)[O-].[Na+]` [Sodium caproate, sodium caproate], the “medicine disappeared by absorption, Osmotic pressure X 1” value [1, 9] was 10.4 percents, the “medicine disappeared by absorption, Osmotic pressure X 2” value ([1]; Table 9, fatty acid 0.1 W/V %, Example 1 repeated, X 2) was 14.7 percents and the “medicine disappeared by absorption, Osmotic pressure X 4” value [1, 10] was 17.2 percents.

With `CCCCCCCC(=O)[O-].[Na+]` [Sodium caprylate, sodium caprylate] the “medicine disappeared by absorption, Osmotic pressure X 1” value [1, 9] was 5.8 percents and the “medicine disappeared by absorption, Osmotic pressure X 4” value [1, 10] was 13.0 percents.

For `CCCCCCCCCCCC(=O)[O-].[Na+]` [Sodium laurate, sodium laurate], the “medicine disappeared by absorption, Osmotic pressure X 1” value [1, 9] was 3.9 percents and the “medicine disappeared by absorption, Osmotic pressure X 4” value [1, 10] was 6.5 percents.

In the case of `CCCC(=O)C(=O)O` [α-ketovaleric acid], the “Cephalothin disappeared by absorption, Osmotic pressure (%) X 1” value [5] is reported as 9.8%, the “Cephalothin disappeared by absorption, Osmotic pressure (%) X 2” value [5] is reported as 14.7% and the “Cephalothin disappeared by absorption, Osmotic pressure (%) X 4” value [5] is reported as 23.2%.

For `N[C@@H](CC(C(=O)O)C(=O)O)C(=O)O` [γ-carboxyglutamic acid], the “Cephalothin disappeared by absorption, Osmotic pressure X 1” value [5] was 13.1 percents, the “Cephalothin disappeared by absorption, Osmotic pressure X 2” value [5] was 24.6 percents and the “Cephalothin disappeared by absorption, Osmotic pressure X 4” value [5] was 31.4 percents.

In the case of `NCCCCCC(=O)O` [ε-aminocaproic acid], the “Cephalothin disappeared by absorption, Osmotic pressure X 1” value [5] is reported as 7.1 percents, the “Cephalothin disappeared by absorption, Osmotic pressure X 2” value [5] is reported as 11.8 percents and the “Cephalothin disappeared by absorption, Osmotic pressure X 4” value [5] is reported as 17.0 percents.

In the case of “Colistin methane sulfonate sodium [Colistin methanesulfonate sodium]”, the “Excreted amount in urine (0-6 hr, %)” value [6] is reported as 1.0%.

With Polymyxin B the “Excreted amount in urine (0-6 hr, %)” value [6] was 0.8%.

With Tuberactinomycin the absorptions through rectum [7] was “increased by the presence of EDTA.2Na and sodium chloride”.

With “calcitonin (CGNLSTCMLGTYTQDFNKFHTFPQTAIGVGAP; ends and bridges not checked; cysteine pairing not given here; UniProt P01258 85-116, looked up) [CT]” the “relative effect on calcium concentration, Isotonic” value ([8]; glucose 0.25M) was 1, the “relative effect on calcium concentration, 6-fold tonic” value ([8]; glucose 1.5M) was 1.67 and the “relative effect on calcium concentration, 3-fold tonic” value ([8]; glucose […]) was 1.05.
